Data on 36 compounds can be found in patent US20250145642A1, “BICYCLIC HETEROARENES AND METHODS OF THEIR USE” (Kineta, Inc., priority 2021, published 2025).

Chain of full-length human PIKFYVE (N-terminal GST-fusion) (Q9Y2I7 whole entry S696N/L932S/Q995L/T998S/S1033A/Q1183K, the tested form may be a part): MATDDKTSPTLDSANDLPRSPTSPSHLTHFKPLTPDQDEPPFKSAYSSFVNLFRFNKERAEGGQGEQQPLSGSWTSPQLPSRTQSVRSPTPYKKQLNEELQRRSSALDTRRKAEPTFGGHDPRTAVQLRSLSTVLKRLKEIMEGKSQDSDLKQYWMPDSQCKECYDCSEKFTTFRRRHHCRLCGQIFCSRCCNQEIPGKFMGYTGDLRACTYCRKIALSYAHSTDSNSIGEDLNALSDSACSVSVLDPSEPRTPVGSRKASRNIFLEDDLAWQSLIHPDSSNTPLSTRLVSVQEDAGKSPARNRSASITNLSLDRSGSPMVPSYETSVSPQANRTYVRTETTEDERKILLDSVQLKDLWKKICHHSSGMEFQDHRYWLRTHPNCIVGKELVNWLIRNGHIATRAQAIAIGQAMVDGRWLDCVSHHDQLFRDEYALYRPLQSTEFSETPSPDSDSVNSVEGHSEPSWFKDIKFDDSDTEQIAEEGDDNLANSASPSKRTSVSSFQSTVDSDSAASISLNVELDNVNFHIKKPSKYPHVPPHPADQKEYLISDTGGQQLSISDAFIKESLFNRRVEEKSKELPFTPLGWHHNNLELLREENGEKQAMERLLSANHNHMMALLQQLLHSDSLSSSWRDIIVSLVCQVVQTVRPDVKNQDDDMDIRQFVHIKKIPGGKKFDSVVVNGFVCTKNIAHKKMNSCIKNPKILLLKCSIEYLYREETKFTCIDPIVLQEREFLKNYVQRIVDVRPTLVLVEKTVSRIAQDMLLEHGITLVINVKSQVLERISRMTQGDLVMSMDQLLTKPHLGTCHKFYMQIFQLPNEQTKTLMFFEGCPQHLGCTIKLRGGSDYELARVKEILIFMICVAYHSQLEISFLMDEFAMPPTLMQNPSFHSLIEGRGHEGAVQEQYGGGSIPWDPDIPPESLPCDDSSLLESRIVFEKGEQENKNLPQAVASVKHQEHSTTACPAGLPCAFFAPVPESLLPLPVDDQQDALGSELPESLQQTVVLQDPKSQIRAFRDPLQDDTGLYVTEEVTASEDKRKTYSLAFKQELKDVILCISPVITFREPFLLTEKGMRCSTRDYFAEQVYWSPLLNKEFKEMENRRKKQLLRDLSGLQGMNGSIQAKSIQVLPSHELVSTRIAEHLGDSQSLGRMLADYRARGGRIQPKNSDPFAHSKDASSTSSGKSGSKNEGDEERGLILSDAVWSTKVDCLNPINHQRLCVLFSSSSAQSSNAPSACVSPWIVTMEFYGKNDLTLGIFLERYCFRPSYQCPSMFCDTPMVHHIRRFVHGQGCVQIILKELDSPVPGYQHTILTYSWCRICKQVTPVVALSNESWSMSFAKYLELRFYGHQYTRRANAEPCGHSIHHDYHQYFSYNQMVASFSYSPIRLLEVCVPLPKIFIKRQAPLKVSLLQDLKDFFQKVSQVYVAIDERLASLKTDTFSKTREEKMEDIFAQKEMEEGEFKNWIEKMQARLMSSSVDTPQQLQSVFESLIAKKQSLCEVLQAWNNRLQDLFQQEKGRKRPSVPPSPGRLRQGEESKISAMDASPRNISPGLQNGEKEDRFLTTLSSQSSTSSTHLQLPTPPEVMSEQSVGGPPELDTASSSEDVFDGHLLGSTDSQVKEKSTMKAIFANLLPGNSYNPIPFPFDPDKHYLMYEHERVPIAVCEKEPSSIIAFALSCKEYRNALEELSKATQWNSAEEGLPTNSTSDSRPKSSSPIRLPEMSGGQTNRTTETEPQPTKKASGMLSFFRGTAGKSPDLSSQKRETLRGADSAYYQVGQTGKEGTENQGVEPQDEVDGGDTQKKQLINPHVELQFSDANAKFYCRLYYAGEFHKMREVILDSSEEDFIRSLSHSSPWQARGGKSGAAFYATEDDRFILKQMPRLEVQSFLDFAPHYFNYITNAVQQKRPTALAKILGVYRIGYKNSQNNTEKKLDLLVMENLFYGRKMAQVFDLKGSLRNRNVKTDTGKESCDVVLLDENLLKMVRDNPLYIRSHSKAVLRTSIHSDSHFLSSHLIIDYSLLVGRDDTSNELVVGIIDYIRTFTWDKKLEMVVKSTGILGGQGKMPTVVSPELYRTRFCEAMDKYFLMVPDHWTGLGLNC

One test concerns the target full-length human PIKFYVE (N-terminal GST-fusion) (Homo sapiens (Human), UniProt Q9Y2I7, L932S/Q1183K/Q995L/S1033A/S696N/T998S). In words: PIKfyve biochemical assay (ADP-Glo Kinase assay, Carna Biosciences). As to conditions: ADP-Glo, full-length human GST-PIKFYVE, 10 μM to 3 nM; read-out: hPIKfyve IC50. An outline of the steps:
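Baculovirus-expressed, glutathione-purified GST-tagged full-length human PIKFYVE (S696N/L932S/Q995L/T998S/S1033A/Q1183K) reacted with substrate and ATP in 50 mM MOPS, 1 mM DTT, pH 7.2, 1 h at room temperature. ADP formed read by ADP-Glo luminescence.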
Broadly, the IC50 is the point on the concentration scale where inhibition reaches its midpoint. For the compound `c1cncc(COc2nc(N3CCOCC3)nc3c2CCN3C2CCNCC2)c1` [Compound 6, 4-(7-(piperidin-4-yl)-4-(pyridin-3-ylmethoxy)-6,7-dihydro-5H-pyrrolo[2,3-d]pyrimidin-2-yl)morpholine], the IC50 is over 10000 nM.

For `CN1CCCC(COc2nc(N3CCOCC3)nc3c2CCN3c2ccnnc2)C1` (stereo not drawn) [Compound 17, 4-(4-((1-methylpiperidin-3-yl)methoxy)-7-(pyridazin-4-yl)-6,7-dihydro-5H-pyrrolo[2,3-d]pyrimidin-2-yl)morpholine], the IC50 lay within 100 to 1000 nM. As to `c1ccc(-n2ncc(N3CCc4c(Oc5cccnc5)nc(N5CCOCC5)nc43)n2)cc1` [Compound 68, 4-(7-(2-phenyl-2H-1,2,3-triazol-4-yl)-4-(pyridin-3-yloxy)-6,7-dihydro-5H-pyrrolo[2,3-d]pyrimidin-2-yl)morpholine], the IC50 fell in the range of 1000 to 10000 nM. On to `CC(C)(C)OC(=O)N1CCC(N2CCc3c(OCc4cccnc4)nc(N4CCOCC4)nc32)CC1` [Compound 5, tert-butyl 4-(2-morpholino-4-(pyridin-3-ylmethoxy)-5H-pyrrolo[2,3-d]pyrimidin-7(6H)-yl)piperidine-1-carboxylate], for which the IC50 is over 10000 nM.

In the case of `c1ccc(N2CCc3c(C4CNC4)nc(N4CCOCC4)nc32)cc1` [Compound 115, 4-(4-(azetidin-3-yl)-7-phenyl-6,7-dihydro-5H-pyrrolo[2,3-d]pyrimidin-2-yl)morpholine], the IC50 fell in the range of 100 to 1000 nM.

As to `c1ccc(N2CCc3c(OCC4CCCO4)nc(N4CCOCC4)nc32)cc1` (stereo not drawn) [Compound 29, 4-(7-phenyl-4-((tetrahydrofuran-2-yl)methoxy)-6,7-dihydro-5H-pyrrolo[2,3-d]pyrimidin-2-yl)morpholine], the IC50 is 100 to 1000 nM.

With `c1ccc(N2CCc3c(COC4CCOCC4)nc(N4CCOCC4)nc32)cc1` [Compound 61, 4-(7-phenyl-4-(((tetrahydro-2H-pyran-4-yl)oxy)methyl)-6,7-dihydro-5H-pyrrolo[2,3-d]pyrimidin-2-yl)morpholine], the IC50 lay in the range of 100 to 1000 nM.

Regarding `CCN1CCCC(COc2nc(N3CCOCC3)nc3c2CCN3c2cccnc2)C1` (stereo not drawn) [Compound 10, 4-(4-((1-ethylpiperidin-3-yl)methoxy)-7-(pyridin-3-yl)-6,7-dihydro-5H-pyrrolo[2,3-d]pyrimidin-2-yl)morpholine], the IC50 lay within 100 to 1000 nM. In the case of `c1cncc(N2CCc3c(OCC4CCCO4)nc(N4CCOCC4)nc32)c1` (stereo not drawn) [Compound 23, 4-(7-(pyridin-3-yl)-4-((tetrahydrofuran-2-yl)methoxy)-6,7-dihydro-6H-pyrrolo[2,3-d]pyrimidin-2-yl)morpholine], the IC50 fell in the range of 100 to 1000 nM. Still for that read-out and setting: the figure for “4-(6-methyl-7-(pyridin-4-yl)-4-(tetrahydrofuran-3-yl)-6,7-dihydro-5H-pyrrolo[2,3-d]pyrimidin-2-yl)morpholine [Compound 98]” is 10 to 100 nM; for `c1ccc(N2CCc3c(OCc4ccncc4)nc(N4CCOCC4)nc32)cc1` [Compound 26, 4-(7-phenyl-4-(pyridin-4-ylmethoxy)-6,7-dihydro-5H-pyrrolo[2,3-d]pyrimidin-2-yl)morpholine] it is 100 to 1000 nM; for `c1ccc(N2CCc3c(OCCC4CCCO4)nc(N4CCOCC4)nc32)cc1` (stereo not drawn) [Compound 30, 4-(7-phenyl-4-(2-(tetrahydrofuran-2-yl)ethoxy)-6,7-dihydro-5H-pyrrolo[2,3-d]pyrimidin-2-yl)morpholine] it is 100 to 1000 nM. For `c1ccc(N2CCc3c(Oc4cccnc4)nc(N4CCOCC4)nc32)cc1` [Compound 53, 4-(7-phenyl-4-(pyridin-3-yloxy)-6,7-dihydro-5H-pyrrolo[2,3-d]pyrimidin-2-yl)morpholine], the half-maximal inhibitory concentration (IC50) fell in the range of 10 to 100 nM.

With `c1ccc(Oc2nc(N3CCOCC3)nc3c2CCN3c2cccnc2)nc1` [Compound 51, 4-(4-(pyridin-2-yloxy)-7-(pyridin-3-yl)-6,7-dihydro-5H-pyrrolo[2,3-d]pyrimidin-2-yl)morpholine], the IC50 fell in the range of 100 to 1000 nM. Still for that read-out and setting: the figure for `COc1cccc(N2CCc3c(OCC4CCCN(C)C4)nc(N4CCOCC4)nc32)c1` (stereo not drawn) [Compound 13, 4-(7-(3-methoxyphenyl)-4-((1-methylpiperidin-3-yl)methoxy)-6,7-dihydro-5H-pyrrolo[2,3-d]pyrimidin-2-yl)morpholine] is 10 to 100 nM; for `c1ccc(N2CCc3c(-c4cccnc4)nc(N4CCOCC4)nc32)cc1` [Compound 91, 4-(7-phenyl-4-(pyridin-3-yl)-6,7-dihydro-5H-pyrrolo[2,3-d]pyrimidin-2-yl)morpholine] it is 10 to 100 nM. As to `N#Cc1ccc(N2CCc3c(OCc4cccnc4)nc(N4CCOCC4)nc32)cc1` [Compound 7, 4-(2-morpholino-4-(pyridin-3-ylmethoxy)-5H-pyrrolo[2,3-d]pyrimidin-7(6H)-yl)benzonitrile], the IC50 was 10 to 100 nM. `COc1cccc(C2CC2c2nc(N3CCOCC3)nc3c2CCN3c2cccnc2)c1` (stereo not drawn) [Compound 122, 4-(4-(2-(3-methoxyphenyl)cyclopropyl)-7-(pyridin-3-yl)-6,7-dihydro-5H-pyrrolo[2,3-d]pyrimidin-2-yl)morpholine]: the IC50 is 100 to 1000 nM. As to `c1cc(-c2nc(N3CCOCC3)nc3c2CCN3C2CCOCC2)ccn1` [Compound 95, 4-(4-(pyridin-4-yl)-7-(tetrahydro-2H-pyran-4-yl)-6,7-dihydro-5H-pyrrolo[2,3-d]pyrimidin-2-yl)morpholine], the IC50 was 100 to 1000 nM. On to `c1cncc(N2CCc3c(C4CCCNC4)nc(N4CCOCC4)nc32)c1` (stereo not drawn) [Compound 114, 4-(4-(piperidin-3-yl)-7-(pyridin-3-yl)-6,7-dihydro-5H-pyrrolo[2,3-d]pyrimidin-2-yl)morpholine], for which the IC50 was 1000 to 10000 nM. Take `CC(=O)N1CCC(c2nc(N3CCOCC3)nc3c2CCN3c2ccccc2)CC1` [Compound 120, 1-(4-(2-morpholino-7-phenyl-6,7-dihydro-5H-pyrrolo[2,3-d]pyrimidin-4-yl)piperidin-1-yl)ethan-1-one]: the IC50 lay in the range of 10 to 100 nM. Same read-out and setting: as for `CN1CCOC(COc2nc(N3CCOCC3)nc3c2CCN3c2cccnc2)C1` (stereo not drawn) [Compound 12, 4-methyl-2-((2-morpholino-7-(pyridin-3-yl)-6,7-dihydro-5H-pyrrolo[2,3-d]pyrimidin-4-yloxy)methyl)morpholine], the figure is 100 to 1000 nM; as for `c1ccc(N2CCc3c(OCCc4ccccn4)nc(N4CCOCC4)nc32)cc1` [Compound 44, 4-(7-phenyl-4-(2-(pyridin-2-yl)ethoxy)-6,7-dihydro-5H-pyrrolo[2,3-d]pyrimidin-2-yl)morpholine], 10 to 100 nM. On the same count and under the same terms, the figure for `c1ccc(N2CCc3c(C4CCOC4)nc(N4CCOCC4)nc32)cc1` (stereo not drawn) [Compound 87, 4-(7-phenyl-4-(tetrahydrofuran-3-yl)-6,7-dihydro-5H-pyrrolo[2,3-d]pyrimidin-2-yl)morpholine] is 10 to 100 nM. The same measure, in the same setting: as for `CC(=O)N1CCC(COc2nc(N3CCOCC3)nc3c2CCN3c2cccnc2)C1` (stereo not drawn) [Compound 36, 1-(3-(((2-morpholino-7-(pyridin-3-yl)-6,7-dihydro-5H-pyrrolo[2,3-d]pyrimidin-4-yl)oxy)methyl)pyrrolidin-1-yl)ethan-1-one], the figure is 100 to 1000 nM; as for `Cc1nc(N2CCOCC2)nc2c1CCN2c1ccccc1` [Compound 45, 4-(4-methyl-7-phenyl-6,7-dihydro-5H-pyrrolo[2,3-d]pyrimidin-2-yl)morpholine], 100 to 1000 nM; as for `c1cncc(-c2nc(N3CCOCC3)nc3c2CCN3c2cccnc2)c1` [Compound 106, 4-(4,7-di(pyridin-3-yl)-6,7-dihydro-5H-pyrrolo[2,3-d]pyrimidin-2-yl)morpholine], 10 to 100 nM. For `N#Cc1nc(N2CCOCC2)nc2c1CCN2c1ccccc1` [Compound 47, 2-morpholino-7-phenyl-6,7-dihydro-5H-pyrrolo[2,3-d]pyrimidine-4-carbonitrile], the IC50 was 100 to 1000 nM.

For the compound `CN1CCC(COc2nc(N3CCOCC3)nc3c2CCN3c2cccnc2)C1` (stereo not drawn) [Compound 35, 4-(4-((1-methylpyrrolidin-3-yl)methoxy)-7-(pyridin-3-yl)-6,7-dihydro-6H-pyrrolo[2,3-d]pyrimidin-2-yl)morpholine], the IC50 was 100 to 1000 nM. `c1ccc(N2CCc3c(OC4CCOC4)nc(N4CCOCC4)nc32)cc1` (stereo not drawn) [Compound 22, 4-(7-phenyl-4-((tetrahydrofuran-3-yl)oxy)-6,7-dihydro-5H-pyrrolo[2,3-d]pyrimidin-2-yl)morpholine]: the IC50 was in the range of 100 to 1000 nM. Still for that read-out and setting: the figure for `Fc1cccc(N2CCc3c(-c4ccoc4)nc(N4CCOCC4)nc32)c1` [Compound 93, 4-(7-(3-fluorophenyl)-4-(furan-3-yl)-6,7-dihydro-5H-pyrrolo[2,3-d]pyrimidin-2-yl)morpholine] is 10 to 100 nM; for `c1cncc(N2CCc3c(OCC4CCNC4)nc(N4CCOCC4)nc32)c1` (stereo not drawn) [Compound 34, 4-(7-(pyridin-3-yl)-4-(pyrrolidin-3-ylmethoxy)-6,7-dihydro-5H-pyrrolo[2,3-d]pyrimidin-2-yl)morpholine] it is 100 to 1000 nM; for `c1cncc(Oc2nc(N3CCOCC3)nc3c2CCN3c2cccnc2)c1` [Compound 55, 4-(7-(pyridin-3-yl)-4-(pyridin-3-yloxy)-6,7-dihydro-5H-pyrrolo[2,3-d]pyrimidin-2-yl)morpholine] it is 100 to 1000 nM. For `O=C1COc2c(OCc3cccnc3)nc(N3CCOCC3)nc2N1c1ccccc1` [Compound 130, 2-morpholino-8-phenyl-4-(pyridin-3-ylmethoxy)-6H-pyrimido[5,4-b][1,4]oxazin-7(8H)-one], the IC50 is 100 to 1000 nM.

Take `CN1CCC(c2nc(N3CCOCC3)nc3c2CCN3c2ccccc2)CC1` [Compound 112, 4-(4-(1-methylpiperidin-4-yl)-7-phenyl-6,7-dihydro-5H-pyrrolo[2,3-d]pyrimidin-2-yl)morpholine]: the IC50 lay within 10 to 100 nM.

Staying with this test, now noted: values plotted in FIG. 7; read-out: PIKFYVE Biochemistry (IC50).
For the compound `O=c1c(CCOc2cccnc2)cc2ncncc2n1-c1ccccc1`, the IC50 is over 10000 nM.
